{
  "source": "patent US20070254941A1",
  "about": "“Subtantially pure ropinirole hydrochloride, polymorphic form of ropinirole and process for their preparation” (Glenmark Pharmaceuticals Limited, priority 2006, published 2007)",
  "origin": "cited, not measured here",
  "key": {"D2 dopamine receptor": {"target": "D2 dopamine receptor (Homo sapiens, UniProt P14416)", "sequence (P14416 whole entry)": "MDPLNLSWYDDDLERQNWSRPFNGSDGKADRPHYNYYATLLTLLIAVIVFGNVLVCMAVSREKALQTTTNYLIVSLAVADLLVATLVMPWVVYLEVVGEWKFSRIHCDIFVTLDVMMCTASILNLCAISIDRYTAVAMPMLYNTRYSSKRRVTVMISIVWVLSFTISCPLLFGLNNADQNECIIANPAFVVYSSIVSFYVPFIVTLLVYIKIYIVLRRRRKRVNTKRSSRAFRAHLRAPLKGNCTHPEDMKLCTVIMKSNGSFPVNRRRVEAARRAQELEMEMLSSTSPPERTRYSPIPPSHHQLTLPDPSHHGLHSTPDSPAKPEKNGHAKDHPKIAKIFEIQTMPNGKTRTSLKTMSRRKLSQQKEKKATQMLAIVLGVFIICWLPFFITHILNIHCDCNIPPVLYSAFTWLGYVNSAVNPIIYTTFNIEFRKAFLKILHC"}, "D3 dopamine receptor [1]": {"target": "T1, D3 dopamine receptor (Homo sapiens, UniProt P35462)", "T1 sequence (P35462 whole entry)": "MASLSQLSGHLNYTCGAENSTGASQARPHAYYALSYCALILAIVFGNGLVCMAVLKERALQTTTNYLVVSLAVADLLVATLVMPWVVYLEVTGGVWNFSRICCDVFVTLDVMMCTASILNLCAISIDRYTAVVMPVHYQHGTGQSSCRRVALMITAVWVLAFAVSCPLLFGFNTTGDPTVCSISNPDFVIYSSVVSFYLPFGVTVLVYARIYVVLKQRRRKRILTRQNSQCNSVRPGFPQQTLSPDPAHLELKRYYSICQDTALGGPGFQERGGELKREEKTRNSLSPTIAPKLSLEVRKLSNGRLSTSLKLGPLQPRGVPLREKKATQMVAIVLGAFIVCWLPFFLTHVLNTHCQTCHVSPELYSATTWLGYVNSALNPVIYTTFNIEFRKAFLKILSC"}, "D3 dopamine receptor [2]": {"target": "T1, D3 dopamine receptor", "details": "D3 versus D2 or D4"}},
  "note": "Counter-ions that a name gives are not always drawn.",
  "data": [
    {"smiles": "CCCN(CCC)CCc1cccc2c1CC(=O)N2", "note": "[Ropinirole hydrochloride]", "values": [
      {"measurement": "intrinsic activity at D2 dopamine receptor subtype", "setting": "D2 dopamine receptor", "value": "full intrinsic activity"},
      {"measurement": "intrinsic activity at D3 dopamine receptor subtype", "setting": "D3 dopamine receptor [1]", "value": "full intrinsic activity"},
      {"measurement": "affinity for D3 relative to D2 or D4 receptor subtypes", "setting": "D3 dopamine receptor [2]", "value": "higher affinity to D3 than to D2 or D4"}
    ]}
  ]
}
